# Measured values as given in patent publication US11661404B2, “Prodrug compounds activated by AKR1C3 and their use for treating hyperproliferative disorders” (priority 2018, dated 2023).
# Entries after “also recorded” stand apart in the source; their conditions may differ.
# What was measured:
# [1] = system: SW780 bladder carcinoma xenografts; experiment: Tumour growth delay, SW780 xenografts; format: in vivo, NIH-III mice; conditions: q4dx6 intraperitoneal, 50 mg/kg
# Excerpt: (§1) Specific pathogen-free female homozygous nude NIH-III (NIH-Lyst^bg Foxn1^nu Btk^xid) mice were bred by the Vernon Jansen Unit (shared vivarium, University of Auckland). Animals were housed in Techniplast microisolator cages and provided with a standard twelve hour day-night light schedule. Animals received standard rodent diet (Harlan Teklad diet 2018i) and water ad libitum. All animal studies were approved by the University of Auckland Animal Ethics Committee.
# (§2) Animals weighed 18-25 g at the time of tumour inoculation. Tumours were grown subcutaneously on the right flank of mice by inoculating cells grown in tissue culture (1×10^7 cells in 100 uL serum free α-MEM). Tumour sizes were monitored three times weekly using electronic callipers and treatments were initiated once tumour diameter reached ≥7 mm.
# (§3) Tumour bearing mice were randomised into the appropriate treatment groups and tumour size and body weight recorded. Test compounds were formulated on the day of the experiment and kept in foil-wrapped tubes out of direct fluorescent light. […] Mice were treated with a single (or q4dx3 or q4dx4 or q4dx6) dose of a compound of the invention by intraperitoneal injection and thereafter tumour size and body weight was monitored every second day. Tumour volume was calculated as […] (l×w×w)/6, where l is the major axis and w is the perpendicular minor axis. […]
# [2] = Stability in solution by HPLC in water and lactate buffer; format: physicochemical
# Method: (§4) The solubility and stability of compound 641 was studied by HPLC in lactate buffer (pH 4) and water as the free base and the mesylate salt (641.Ms) at 0° C. and room temperature (RT). […] However, this was improved considerably by formulation as the mesylate salt, producing a solubility of greater than 100 mmol/L in lactate buffer and greater than 70 mmol/L in water. […] This stability was improved considerably by reducing the temperature of the solution to 0° C.
# [3] = system: SNU-398^AKR1C3 (AKR1C3 over-expressing) hepatocellular carcinoma xenografts; experiment: Tumour growth delay, SNU-398 AKR1C3 over-expressing xenografts; format: in vivo, NIH-III mice; conditions: q4dx4 intraperitoneal, 50 mg/kg
# Excerpt: as §1, §2, §3
# [4] = system: SNU-398^WT (wild type) hepatocellular carcinoma xenografts; experiment: Tumour growth delay, SNU-398 wild type xenografts; format: in vivo, NIH-III mice; conditions: q4dx4 intraperitoneal, 50 mg/kg; negligible AKR1C3 expression; FIG. 7
# Excerpt: as §1, §2, §3
# [5] = Solubility by HPLC in water and lactate buffer; format: physicochemical; conditions: water, room temperature; read-out: Solubility, Water, RT
# Method: as §4
# [6] = system: PLC/PRF/5 hepatocellular carcinoma xenografts; experiment: Tumour growth delay, PLC/PRF/5 xenografts; format: in vivo, NIH-III mice; conditions: q4dx4 intraperitoneal, 114 mg/kg
# Excerpt: as §1, §2, §3
# [7] = system: H460 lung cancer xenografts; experiment: Tumour growth delay, H460 xenografts; format: in vivo, NIH-III mice
# Excerpt: as §1, §2
# Tumour bearing mice were randomised into the appropriate treatment groups and tumour size and body weight recorded. Test compounds were formulated on the day of the experiment and kept in foil-wrapped tubes out of direct fluorescent light. If recruitment of animals occurred over multiple days, the drug stocks were aliquoted into tubes and frozen once at −80° C. until required. Mice were treated with a single (or q4dx3 or q4dx4 or q4dx6) dose of a compound of the invention by intraperitoneal injection and thereafter tumour size and body weight was monitored every second day. Tumour volume was calculated as […] (l×w×w)/6, where l is the major axis and w is the perpendicular minor axis. Animals were culled when they had reached the appropriate survival endpoint or when body weight loss exceeded 20% of the pre-treatment value.
structure (smiles),measurement,setting,value
"CN1CCN(S(=O)(=O)c2cc([N+](=O)[O-])ccc2N(CCOS(C)(=O)=O)CCOS(C)(=O)=O)CC1 [Compound 641.Ms, 4-((2-(bis(2-((methylsulfonyl)oxy)ethyl)amino)-5-nitrophenyl)sulfonyl)-1-methylpiperazin-1-ium methanesulfonate]",tolerability of schedule,[1],well-tolerated
same,anti-tumour activity (mean tumour volume),[1]; FIG. 6,significant anti-tumour activity
same,"Stability (% Parent after 24 hours), Lactate Buffer, 0° C.","[2]; lactate buffer (pH 4), 0° C.",91.7%
same,"Stability (% Parent after 24 hours), Lactate Buffer, RT","[2]; lactate buffer (pH 4), room temperature, methanesulfonate",51.9%
same,"Stability (% Parent after 24 hours), Water, RT","[2]; water, room temperature",53.8%
same,anti-tumour activity (mean tumour volume),[3]; FIG. 7,significant anti-tumour activity
same,tolerability of schedule,[3]; mice bearing SNU-398^WT or SNU-398^AKR1C3 xenografts,well-tolerated
same,anti-tumour activity (mean tumour volume),[4],inactive
same,solubility,[5],> 70 mM
same,tolerability of schedule,[6],well-tolerated
same,anti-tumour activity (mean tumour volume),[6]; FIG. 5,significant anti-tumour activity
same,anti-tumour efficacy (mean tumour volume),"[7]; q4dx4 intraperitoneal, 10, 25, 50, 100 and 150 mg/kg, FIG. 4",significant anti-tumour efficacy
same,mean percentage change in body weight,"[7]; q4dx4 intraperitoneal, 10-150 mg/kg, all dose cohorts",≥ −10%
same,tolerability,"[7]; q4dx4 intraperitoneal, 10-150 mg/kg, methanesulfonate",well-tolerated; also recorded: well tolerated
same,anti-tumour efficacy (mean tumour volume),"[7]; single dose intraperitoneal, 237, 422, 562, 750 and 1000 μmol/kg, FIG. 3",significant anti-tumour efficacy
same,tolerability,"[7]; single dose intraperitoneal, 237-1000 μmol/kg",well-tolerated
